Experimental data published in US8263606B2 (Xenon Pharmaceuticals Inc., priority 2008, dated 2012).

Legend:
sodium channel = assay: Guanidine influx assay (14C-guanidine radiotracer flux, in vitro); assay type: cell-based, human or rat; conditions: guanidine influx assay using a known cell line that expresses a sodium channel
Method in brief: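 Aconitine holds channels open while 14C-guanidine enters human or rat sodium-channel-expressing cells in choline-substituted low-sodium saline, with test agent present at ambient temperature. Retained tracer is scintillation-counted and IC50 fitted by a four-parameter logistic model.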

CYP3A4 = CYP3A4 (Homo sapiens, UniProt P08684); assay: Cytochrome P450 (CYP450) Inhibition Assay, CYP3A4 (Vivid fluorescence, BOMCC substrate); conditions: human, P450 Baculosomes (recombinant CYP3A4), probe BOMCC (Vivid substrate)
Sequence of CYP3A4 (P08684 whole entry): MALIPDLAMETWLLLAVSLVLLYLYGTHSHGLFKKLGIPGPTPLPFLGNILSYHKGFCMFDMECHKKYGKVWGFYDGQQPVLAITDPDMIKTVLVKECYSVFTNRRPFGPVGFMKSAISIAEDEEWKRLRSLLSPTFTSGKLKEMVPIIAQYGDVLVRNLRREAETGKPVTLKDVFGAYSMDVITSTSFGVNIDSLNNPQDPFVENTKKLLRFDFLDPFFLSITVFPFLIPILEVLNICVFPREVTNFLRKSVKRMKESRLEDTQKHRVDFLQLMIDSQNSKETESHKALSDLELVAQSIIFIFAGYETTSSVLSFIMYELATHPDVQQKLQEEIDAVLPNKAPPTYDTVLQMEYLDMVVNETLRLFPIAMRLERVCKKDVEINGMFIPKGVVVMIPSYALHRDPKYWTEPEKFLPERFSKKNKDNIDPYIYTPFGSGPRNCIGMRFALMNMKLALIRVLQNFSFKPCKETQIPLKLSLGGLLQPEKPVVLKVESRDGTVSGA

Row | Compound | IC50 (sodium channel) [nM] | melting point [°C] | inhibition at 10 µM (CYP3A4) [%]
1 | O=C1N(CCC(O)C(F)(F)F)c2ccccc2C12COc1cc3c(cc12)CCO3 (stereo not drawn) [Example 14.5, 1′-(4,4,4-trifluoro-3-hydroxybutyl)-5,6-dihydrospiro[benzo[1,2-b:5,4-b′]difuran-3,3′-indol]-2′(1′H)-one] | 100 to 1000 | 124 to 126 | > 50
2 | CC(C)CCNCCCN1C(=O)C2(COc3cc4c(cc32)CCO4)c2ccccc21.Cl (stereo not drawn) [Example 15.1, 1′-{3-[(3-methylbutyl)amino]propyl}-5,6-dihydrospiro[benzo[1,2-b:5,4-b′]difuran-3,3′-indol]-2′(1′H)-one hydrochloride] | 1000 to 10000 | 98 to 101 | > 50
3 | CCCCN(C)CCCN1C(=O)C2(COc3cc4c(cc32)CCO4)c2ccccc21.Cl (stereo not drawn) [Example 15.2, 1′-{3-[butyl(methyl)amino]propyl}-5,6-dihydrospiro[benzo[1,2-b:5,4-b′]difuran-3,3′-indol]-2′(1′H)-one hydrochloride] | 1000 to 10000 | 96 to 99 | > 50
4 | Cl.O=C1N(CCCNCC(F)(F)F)c2ccccc2C12COc1cc3c(cc12)CCO3 (stereo not drawn) [Example 15.3, 1′-{3-[(2,2,2-trifluoroethyl)amino]propyl}-5,6-dihydrospiro[benzo[1,2-b:5,4-b′]difuran-3,3′-indol]-2′(1′H)-one hydrochloride] | 100 to 1000 | 124 to 126 | > 50
5 | Cl.N#CCCNCCCN1C(=O)C2(COc3cc4c(cc32)CCO4)c2ccccc21 (stereo not drawn) [Example 15.4, 3-{[3-(2′-oxo-5,6-dihydrospiro[benzo[1,2-b:5,4-b′]difuran-3,3′-indol]-1′(2′H)-yl)propyl]amino}propanenitrile hydrochloride] | 100 to 1000 | 214 to 216 | > 50
6 | CN(C)c1ccc(-c2cccc3c2C2(COc4cc5c(cc42)CCO5)C(=O)N3Cc2ccc(C(F)(F)F)o2)cn1 (stereo not drawn) [Example 16.11, 4′-[6-(dimethylamino)pyridin-3-yl]-1′-{[5-(trifluoromethyl)furan-2-yl]methyl}-5,6-dihydrospiro[benzo[1,2-b:5,4-b′]difuran-3,3′-indol]-2′(1′H)-one] | 100 to 1000 | 223 to 225 | > 50
7 | CN(C)c1ccc(-c2cccc3c2C2(COc4cc5c(cc42)OCO5)C(=O)N3Cc2ccc(Cl)s2)cn1 (stereo not drawn) [Example 16.12, 1′-[(5-chloro-2-thienyl)methyl]-4′-[6-(dimethylamino)pyridin-3-yl]spiro[furo[2,3-f][1,3]benzodioxole-7,3′-indol]-2′(1′H)-one] | 100 to 1000 | 215 to 218 | > 50
8 | O=C1N(Cc2ccc(Cl)s2)c2cccc(-c3ccoc3)c2C12COc1cc3c(cc12)OCO3 (stereo not drawn) [Example 16.13, 1′-[(5-chloro-2-thienyl)methyl]-4′-(3-furyl)spiro[furo[2,3-f][1,3]benzodioxole-7,3′-indol]-2′(1′1-1)-one] | 100 to 1000 | 166 to 168 | > 50
9 | CN(C)c1ccc(-c2cccc3c2C2(COc4cc5c(cc42)OCO5)C(=O)N3)cn1 (stereo not drawn) [Example 16.14, 4′-[6-(dimethylamino)pyridin-3-yl]spiro[furo[2,3-f][1,3]benzodioxole-7,3′-indol]-2′(1′H)-one] | 1000 to 10000 | > 245 | > 50
10 | CN(C)c1ccc(-c2cccc3c2C2(COc4cc5c(cc42)OCCO5)C(=O)N3Cc2ccccn2)cn1 (stereo not drawn) [Example 16.59, 4′-(6-(dimethylamino)pyridin-3-yl)-1′-(pyridin-2-ylmethyl)-3,7-dihydro-2H-spiro[benzofuro[5,6-b][1,4]dioxine-8,3′-indolin]-2′-one] | 100 to 1000 | 187 to 188 | > 50
11 | COc1ccc(-c2cccc3c2C2(COc4cc5c(cc42)OCCO5)C(=O)N3Cc2ccccn2)cc1 (stereo not drawn) [Example 16.60, 4′-(4-methoxyphenyl)-1′-(pyridin-2-ylmethyl)-3,7-dihydro-2H-spiro[benzofuro[5,6-b][1,4]dioxine-8,3′-indolin]-2′-one] | 1 to 100 | 205 to 206 | > 50
12 | CN1C(=O)[C@@]2(COc3cc4c(cc32)OCO4)c2c(-c3ccoc3)cccc21 [Example 16.61, (7S)-4′-furan-3-yl-1′-methylspiro[furo[2,3-f][1,3]benzodioxole-7,3′-indol]-2′(1′H)-one] | 1 to 100 | 144 to 145 | > 50
13 | CN1C(=O)[C@]2(COc3cc4c(cc32)OCO4)c2c(-c3ccoc3)cccc21 [Example 16.62, (7R)-4′-furan-3-yl-1′-methylspiro[furo[2,3-f][1,3]benzodioxole-7,3′-indol]-2′(1′H)-one] | 100 to 1000 | 144 to 145 | > 50

Second part, the compound after the results:

Row | IC50 (sodium channel) [nM] | melting point [°C] | inhibition at 10 µM (CYP3A4) [%] | Compound
14 | 1000 to 10000 | 60 to 62 | > 50 | COc1ccc(-c2ccc3c(c2)C2(CO3)C(=O)N(Cc3ccc(Cl)s3)c3ccccc32)cn1 (stereo not drawn) [Example 16.88, 1′-[(5-chloro-2-thienyl)methyl]-5-(6-methoxypyridin-3-yl)spiro[1-benzofuran-3,3′-indol]-2′(1′H)-one]
15 | 1 to 100 | 226 to 227 | > 50 | O=C1N(Cc2ccc(O)cc2)c2ccccc2C12COc1cc3c(cc12)CCO3 (stereo not drawn) [Example 17, 1′-(4-hydroxybenzyl)-5,6-dihydrospiro[benzo[1,2-b:5,4-b′]difuran-3,3′-indol]-2′(1′H)-one]
16 | 1 to 100 | 243 to 244 | > 50 | O=C1N(Cc2ccc(O)cc2)c2ccccc2C12COc1cc3c(cc12)OCCO3 (stereo not drawn) [Example 17.1, 1′-(4-hydroxybenzyl)-2,3-dihydrospiro[furo[2,3-g][1,4]benzodioxine-8,3′-indol]-2′(1′H)-one]
17 | 1 to 100 | 157 to 158 | < 50 | O=C1N(CCCO)c2ccccc2C12COc1cc3c(cc12)OCCO3 (stereo not drawn) [Example 17.2, 1′-(3-hydroxypropyl)-2,3-dihydrospiro[furo[2,3-g][1,4]benzodioxine-8,3′-indol]-2′(1′H)-one]
18 | 1 to 100 | 198 to 200 | < 50 | CCOC(=O)N1C(=O)C2(COc3cc4c(cc32)OCCO4)c2ccccc21 (stereo not drawn) [Example 18, ethyl 2′-oxo-2,3-dihydrospiro[furo[2,3-g][1,4]benzodioxine-8,3′-indole]-1′(2′H)-carboxylate]
19 | 1 to 100 | 154 to 156 | > 50 | CC(C)(C)OC(=O)N1C(=O)C2(COc3cc4c(cc32)OCO4)c2c(Br)cccc21 (stereo not drawn) [Example 18.1, tert-butyl 4′-bromo-2′-oxospiro[furo[2,3-f][1,3]benzodioxole-7,3′-indole]-1′(2′H)-carboxylate]
20 | 100 to 1000 | 171 to 172 | < 50 | CC(C)(C)OC(=O)N1C(=O)C2(COc3cc4c(cc32)OCCO4)c2ccccc21 (stereo not drawn) [Example 18.2, tert-butyl 2′-oxo-2,3-dihydrospiro[furo[2,3-g][1,4]benzodioxine-8,3′-indole]-1′(2′H)-carboxylate]
